Reference: patent US12048714B2, “Products and methods for organ protection with noble nanoparticles” (UCHICAGO ARGONNE, LLC, priority 2020, dated 2024)
“Also recorded” adds a separate entry of the source.

Assays:
[1] = Ex situ reduction of gold precursors by NADH to Au NPs, monitored by UV-vis spectra; details: for formation of Au NPs / reduction to Au0 when mixed with NADH: gold precursor mixed with NADH, ex situ
Experimental: Gold (III) chloride (AuCl3) and cofactors, NADH, NADPH and ATP, were purchased from Sigma/Aldrich (St. Louis, MO). Paraformaldehyde/glutaraldehyde fixative solution was purchased from Electron Microscopy Sciences (Hatfield, PA). Gold NPS were formed through reduction of the AuCl3 by cofactors. Briefly, 100 μM NADH solution in PBS, pH 7.4, was placed in a cuvette and mixed with aliquots of AuCl3 in the same buffer to achieve 4:1, 2:1, and equimolar NADH/precursor ratios, at room temperature under constant stirring. Oxidation of NADH and formation of Au NPs were recorded at 340 nm and 520 nm, respectively, by UV-vis spectra using CARY-50 spectrophotometer.
AuCl3 was chosen as a precursor due to higher electron sinking capacity of Au (III) and higher stability as compared to Au(I) that can transform in vivo into Au(III) (Thakor et al., Nano Lett, 2011, 11: 4029-4036).

[2] = test system: living acute brain sections; assay: In-situ gold nanoparticle biosynthesis in hypoxic living acute brain sections (staining, SAXS/WAXS, TEM); assay type: cell-based, mice C57BL/6J
Experimental: All animal procedures and the brain slice preparation procedures were performed in accordance with the Institutional Animal Care and Use Committee at the University of Chicago. Experimental mice C57BL/6J (male, 17 days old, n=2) were anesthetized by intraperitoneal injection of ketamine-xylazine, decapitated, and had their brains quickly removed. The brains were placed to the ice-cold “cut” artificial cerebrospinal fluid (ACSF) solution (containing the following, in mM: 3 KCl, 26 NaHCO3, 1 NaH2PO4, 0.5 CaCl2), 3.5 MgSO4, 25 dextrose, 123 sucrose) for quick, less than 5 min, slicing on vibratome at a thickness of 450 μm. The sections then were placed into an oxygenated incubation ACSF solution (containing the following, in mM: 123 NaCl, 3 KCl, 26 NaHCO3, 1 NaH2PO4, 2 CaCl2), 6 MgSO4, 25 dextrose) for 40 min, maintained at 32-36° C. (Sadovsky et al., J Neurosci, 2013, 33:14048-676). Tissue was left to rest at room temperature for 30 min before hypoxic induction. Hypoxia was induced in brain slices (i.e., living acute brain sections) in an oxygen-deprived chamber for 5 min, while their opposite hemisphere counterparts were used as normally oxygenated controls.
Three aliquots of aqueous AuCl3 were added to oxygen-deprived and oxygenated (control) brain slices to reach 100 μM-10 mM final concentrations of the precursor, incubated for 5 min, thoroughly rinsed (to ensure removal of precursor excess), and fixed using 2% glutaraldehyde+2% paraformaldehyde in 0.1M phosphate buffer, pH 7.4, and then stored in the same fixing solution at +5° C. before imaging and analyses.
Before the beam experiment, brain slices were removed from the ACSF solution, and mounted by sealing them between two thin glass cover slides (Fisherfinest). In situ small-angle X-ray scattering (SAXS) and wide angle X-ray scattering (WAXS) (SAXS/WAXS) measurements were carried out at beamline 12-ID-B of the Advanced Photon Source (APS), Argonne National Laboratory. In situ SAXS data were analyzed by custom-built software that is run on Matlab after standard data correction including background correction.
To isolate Au NPs, fixed brain slices were freeze-dried and mechanically grinded down. Then the NPs were extracted by DI water followed by separation of the biological debris via centrifugation (2000 rpm for 10 min). The NPs-containing supernatant were dropped onto an Ultrathin Carbon Cu transmission electron microscopy (TEM) grid with the Formvar pre-removed in toluene. Samples were allowed to set for about 1 hour and then rinsed by DI water. TEM analysis of the NPs was performed with a JEM-2100F field emission electron microscope (JEOL LTD, Tokyo, Japan) operated at 200 kV.
Coronal 450 μm thick sections of the mouse brain were isolated and prepared by a technique that allows maintaining the integrity of the isolated brain functions for sufficient experimental time-lapse, as depicted in FIGS. 4A-D. (See Sadovsky et al., J Neurosci, 2013, 33: 14048-U14676). The prepared living brain slices were incubated in a chamber with oxygenated ACSF solution (containing the following, in mM: 123 NaCl, 3 KCl, 26 NaHCO3, 1 NaH2PO4, 2 CaCl2), 6 MgSO4, 25 dextrose) for 40 min, maintained at 32-36° C. (Sadovsky et al., J Neurosci, 2013, 33: 14048-14676). Tissue was left to rest at room temperature for 30 min before hypoxic induction. Hypoxia was induced in brain slices in an oxygen-deprived chamber for 5 min, while their opposite hemisphere counterparts were used as normally oxygenated controls. […]

[Cl][Au] [AuCl, gold monochloride]
formation of Au NPs / reduction to Au0 when mixed with NADH [1]: reduced by NADH to Au^0

CC(=O)OC[C@H]1O[C@@H]([S-])[C@H](OC(C)=O)[C@@H](OC(C)=O)[C@@H]1OC(C)=O.CCP(CC)CC.[Au+] [auranofin, reference compound]
formation of Au NPs / reduction to Au0 when mixed with NADH [1]: yielded no Au NPs

O=C([O-])CC([S-])C(=O)[O-].[Au+].[Na+].[Na+] (stereo not drawn) [myochrysine, reference compound]
formation of Au NPs / reduction to Au0 when mixed with NADH [1]: yielded no Au NPs

OC[C@H]1O[C@H]([S-])[C@H](O)[C@@H](O)[C@@H]1O.[Au+] [solganal, reference compound]
formation of Au NPs / reduction to Au0 when mixed with NADH [1]: yielded no Au NPs

Gold (III) chloride [AuCl3]
staining indicative of Au NPs in brain slices ([2]; hypoxic slices, 100 μM precursor, 5 min incubation): revealed staining localized mainly in the outer regions of the brain section; also recorded: pink staining mainly in the outer regions of the brain section
formation of Au NPs / staining in brain slices ([2]; hypoxic slices, 10 mM precursor): significant dark staining
formation of Au NPs / staining in brain slices ([2]; hypoxic slices, 10 mM precursor, listed as Au(III) precursor): formation of Au NPs took place only in hypoxic brain slices
formation of Au NPs / staining in brain slices ([2]; oxygenated (control) brain slices exposed to precursor): preserves its natural color
formation of Au NPs / staining in brain slices ([2]; oxygenated (control) brain slices exposed to precursor, listed as Au(III) precursor): No Au NPs were detected
time of reaction after which pink color was detected by the naked eye ([1]; AuCl3/NADH molar ratio 1:4): 20 min
time to appearance of new peak at 520 nm characteristic for Au NPs ([1]; AuCl3/NADH molar ratio 1:4): ~7 min
oxidation of NADH (peak at 340 nm) ([1]; AuCl3/NADH molar ratio 1:4, NADH aqueous solution, UV-vis): immediate drop of the intensity of peak at 340 nm
